{"source": "patent US20100056627A1", "about": "“PHARMACEUTICAL COMPOSITIONS OF ALKYL GALLATES” (priority 2006, published 2010)", "key": {"[1]": {"tested_on": "gram-positive and gram-negative bacteria", "assay": "MIC (minimum growth inhibition concentration), 2-fold serial agar plate dilution on Mueller Hinton II Agar, with concomitant alkyl gallate and salt", "conditions": "n-heptyl, n-hexyl, n-pentyl, n-butyl, isobutyl or n-propyl gallate at a concentration equal to or less than MIC"}, "influenza virus": {"tested_on": "influenza virus", "assay": "Influenza virucidal activity of n-dodecyl gallate with n-hexyl gallate or n-butyl gallate (FIG. 3)", "assay_type": "cell-based", "description": "FIG. 3 is a graph showing reinforcement of the influenza virucidal activity of n-dodecyl gallate by n-hexyl gallate and n-butyl gallate. The abscissa axis indicates the concentrations of n-dodecyl gallate.\nThe open circle in FIG. 3 indicates an influenza virucidal effect of dodecyl gallate alone."}, "[2]": {"tested_on": "Pseudomonas aeruginosa POA1", "assay": "Antimicrobial action (MIC) of lauryl gallate with isoamyl gallate or propyl gallate in 3% NaCl", "assay_type": "cell-based", "conditions": "for MIC: Pseudomonas aeruginosa, P. aoruginosa PAO1, MHA (3% NaCl)"}, "clinical isolate MRSA": {"tested_on": "clinical isolate MRSA", "assay": "Oxacillin MIC against MRSA with concomitant octyl gallate and short-chain alkyl gallate (β-lactam sensitivity, ILSMR effect)", "assay_type": "cell-based, Staphylococcus aureus", "conditions": "Staphylococcus aureus, MRSA, 24 h, Isoamyl G 25 μg/mL; Octyl G 1.5625 μg/mL"}, "[3]": {"tested_on": "influenza virus A/Aichi (H3N2)", "assay": "Virucidal activity against influenza virus A/Aichi (H3N2) (Table 16)", "conditions": "Table 16, NaCitrate 0.90%"}, "herpes virus (HSV-1)": {"tested_on": "herpes virus (HSV-1)", "assay": "Virucidal activity against HSV-1 (Tables 14, 15, FIG. 5)", "assay_type": "cell-based"}, "[4]": {"tested_on": "Candida albicans ATCC 10231", "assay": "Time required for killing mold, octyl gallate and propyl gallate (FIG. 2)", "assay_type": "cell-based", "conditions": "Candida albicans ATCC 10231, FIG. 2", "description": "FIG. 2 is a graph showing shortening of the time required for killing mold by the concomitant use of octyl gallate and propyl gallate against Candida albicans ATCC 10231."}, "MRSA COL strain": {"tested_on": "MRSA COL strain", "assay": "Time required for killing bacteria, octyl gallate and propyl gallate (FIG. 1)", "assay_type": "cell-based, Staphylococcus aureus", "description": "FIG. 1 is a graph showing shortening of the time required for killing bacteria by the concomitant use of octyl gallate and propyl gallate against MRSA COL strain."}, "influenza virus B/T/1/05": {"tested_on": "influenza virus B/T/1/05", "assay": "Time course of virucidal activity at 37° C., infectivity by plaque assay in MDCK cells (FIGS. 6 to 12)", "assay_type": "cell-based", "conditions": "influenza B/T/1/05, FIGS. 6 and 8", "protocol": "The experiments in FIGS. 7 to 12 were carried out at 37° C. The infectivity of viruses was determined using MDCK cells by the plaque assay method.\nThis virucidal activity of octyl gallate was reinforced by propyl gallate also against influenza virus A/Aichi (H3N2) in the same manner as above."}}, "data": [{"smiles": "CCCCCCCCCCCCOC(=O)c1cc(O)c(O)c(O)c1", "note": "[dodecyl gallate, n-dodecyl gallate]", "values": [{"measurement": "change of MIC value by addition of shorter-chain alkyl gallate", "setting": "[1]", "value": "decreased"}, {"measurement": "virucidal effect of dodecyl gallate", "setting": "influenza virus; addition of butyl gallate at a concentration without virucidal effect", "value": "reinforced markedly"}, {"measurement": "dodecyl gallate concentration at which no survivor was observed", "setting": "influenza virus; coexistence of 100 μg/ml of hexyl gallate", "value": 20, "unit": "µg/mL"}, {"measurement": "MIC", "setting": "[2]; PAO1, 24 h, concomitant none, 24 h", "value": 15.6, "unit": "µg/mL"}, {"measurement": "MIC", "setting": "[2]; PAO1, 48 h, concomitant none, 48 h", "value": 31.2, "unit": "µg/mL"}, {"measurement": "MIC", "setting": "[2]; PAO1, 48 h, isoamyl gallate 50 μg/mL, 48 h", "value": 3.91, "unit": "µg/mL"}, {"measurement": "MIC", "setting": "[2]; PAO1, 48 h, isoamyl gallate 75 μg/mL, 48 h", "value": 0.977, "unit": "µg/mL"}, {"measurement": "MIC", "setting": "[2]; PAO1, 48 h, propyl gallate 75 μg/mL, 48 h", "value": 0.488, "unit": "µg/mL"}, {"measurement": "antimicrobial action of lauryl gallate", "setting": "[2]; isoamyl gallate or propyl gallate in the presence of 3% NaCl (Table 6)", "value": "reinforced"}]}, {"smiles": "CCCCCCCCCCOC(=O)c1cc(O)c(O)c(O)c1", "note": "[n-decyl gallate]", "values": [{"measurement": "change of MIC value by addition of shorter-chain alkyl gallate", "setting": "[1]", "value": "decreased"}]}, {"smiles": "CCCCCCCCCOC(=O)c1cc(O)c(O)c(O)c1", "note": "[n-nonyl gallate]", "values": [{"measurement": "change of MIC value by addition of shorter-chain alkyl gallate", "setting": "[1]", "value": "decreased"}]}, {"smiles": "CCCCCCCCCCCOC(=O)c1cc(O)c(O)c(O)c1", "note": "[n-undecyl gallate]", "values": [{"measurement": "change of MIC value by addition of shorter-chain alkyl gallate", "setting": "[1]", "value": "decreased"}]}, {"smiles": "Cc1onc(-c2ccccc2)c1C(=O)N[C@@H]1C(=O)N2[C@@H]1SC(C)(C)[C@@H]2C(=O)O", "note": "[oxacillin, reference compound]", "values": [{"measurement": "MIC", "setting": "clinical isolate MRSA", "value": 0.125, "unit": "µg/mL"}]}, {"smiles": "CCCOC(=O)c1cc(O)c(O)c(O)c1", "note": "[propyl gallate]", "values": [{"measurement": "No of plaques", "setting": "[3]; octyl gallate 0, propyl gallate 300 mg/L, J1816 90 mg/L", "value": 52}, {"measurement": "No of plaques", "setting": "[3]; propyl gallate 100 mg/L, J1816 30 mg/L", "value": 84}, {"measurement": "No of plaques", "setting": "[3]; propyl gallate 200 mg/L, J1816 60 mg/L", "value": 87}, {"measurement": "No of plaques", "setting": "[3]; propyl gallate 300 mg/L, J1816 90 mg/L", "value": 53}, {"measurement": "No of plaques", "setting": "[3]; propyl gallate 400 mg/L, J1816 120 mg/L", "value": 47}, {"measurement": "No of plaques", "setting": "[3]; propyl gallate 500 mg/L, J1816 150 mg/L", "value": 42}, {"measurement": "No of plaques", "setting": "herpes virus (HSV-1); Table 14, octyl gallate 0, propyl gallate 300 mg/L, J1816 90 mg/L, Na3citrate 0.90%", "value": 0}, {"measurement": "No of plaques", "setting": "herpes virus (HSV-1); Table 14, propyl gallate 100 mg/L, J1816 30 mg/L, Na3citrate 0.90%", "value": 0}, {"measurement": "No of plaques", "setting": "herpes virus (HSV-1); Table 14, propyl gallate 200 mg/L, J1816 60 mg/L, Na3citrate 0.90%", "value": 0}, {"measurement": "No of plaques", "setting": "herpes virus (HSV-1); Table 14, propyl gallate 300 mg/L, J1816 90 mg/L, Na3citrate 0.90%", "value": 0}, {"measurement": "No of plaques", "setting": "herpes virus (HSV-1); Table 14, propyl gallate 400 mg/L, J1816 120 mg/L, Na3citrate 0.90%", "value": 0}, {"measurement": "No of plaques", "setting": "herpes virus (HSV-1); Table 14, propyl gallate 500 mg/L, J1816 150 mg/L, Na3citrate 0.90%", "value": 0}, {"measurement": "No of plaques", "setting": "herpes virus (HSV-1); Table 15, octyl gallate 0, propyl gallate 300 mg/L, J1816 0, NaCitrate 0.90%", "value": 137}, {"measurement": "No of plaques", "setting": "herpes virus (HSV-1); Table 15, propyl gallate 100 mg/L, J1816 0, NaCitrate 0.90%", "value": 192}, {"measurement": "No of plaques", "setting": "herpes virus (HSV-1); Table 15, propyl gallate 200 mg/L, J1816 0, NaCitrate 0.90%", "value": 139}, {"measurement": "No of plaques", "setting": "herpes virus (HSV-1); Table 15, propyl gallate 300 mg/L, J1816 0, NaCitrate 0.90%", "value": 162}, {"measurement": "No of plaques", "setting": "herpes virus (HSV-1); Table 15, propyl gallate 400 mg/L, J1816 0, NaCitrate 0.90%", "value": 102}, {"measurement": "No of plaques", "setting": "herpes virus (HSV-1); Table 15, propyl gallate 500 mg/L, J1816 0, NaCitrate 0.90%", "value": 130}, {"measurement": "fungicidal activity alone", "setting": "[4]", "value": "low"}, {"measurement": "bactericidal activity alone", "setting": "MRSA COL strain", "value": "low"}, {"measurement": "virucidal activity alone", "setting": "influenza virus B/T/1/05", "value": "low"}]}]}
